Data from US20120028931A1, “HETEROCYCLIC M-GLU5 ANTAGONISTS” (RECORDATI IRELAND LIMITED, priority 2009, published 2012).
pKi: −log10 of the molar value.

What was measured:
[1] = tested on: conscious rats; test: Cystometry in conscious rats; type: in vivo, rat; conditions: administered orally
Protocol: Male Sprague-Dawley rats [Crl: CD® (SD) IGS BR] of 300-400 g b.w. supplied by Charles River Italia were used. The animals were housed with free access to food and water and maintained on a forced 12-hour-light/12-hour-dark cycle at 22-24° C. of temperature, except during the experiment. To quantify urodynamic parameters in conscious rats, cystometrographic studies were performed according to the procedure previously reported (Guarneri et al., Pharmacol. Res. 24: 175, 1991).
Briefly, the rats were anaesthetised by intraperitoneal administration of 3 ml/kg of Equithensin solution (pentobarbital 30 mg/kg and chloral hydrate 125 mg/kg) and placed in a supine position. […]
On the day of the experiment, the rats were placed in modified Bollman cages, i.e., restraining cages that were large enough to permit the rats to adopt a normal crouched posture, but narrow enough to prevent turning around. […] The intraluminal-pressure signal during infusion of saline into the bladder (cystometrogram) was continuously recorded on a polygraph (Rectigraph-8K San-ei with BM614/2 amplifier from Biomedica Mangoni) or stored on PC by data acquisition system (PowerLab, Chart 4 software, AD Instruments). From the cystometrogram, bladder volume capacity (BVC) was evaluated. […] Basal BVC value was evaluated as the mean of the values observed in the cystometrograms recorded in an initial period of 30-60 minutes. […]

[2] = molecular target: T1, mGlu5 receptor (Rattus norvegicus, UniProt P31424); test: Radioligand binding assay at metabotropic glutamate receptor 5 in rat brain ([3H]MPEP); conditions: rat forebrain membranes, 4 nM [3H]MPEP; Ki from IC50 by Cheng & Prusoff; read-out: affinity (Ki) for mGlu5 receptor
T1 construct: from tissue; host or cells: forebrain (cortex, striatum and hippocampus) membranes of male Sprague Dawley rats
T1 sequence (P31424 21-1203): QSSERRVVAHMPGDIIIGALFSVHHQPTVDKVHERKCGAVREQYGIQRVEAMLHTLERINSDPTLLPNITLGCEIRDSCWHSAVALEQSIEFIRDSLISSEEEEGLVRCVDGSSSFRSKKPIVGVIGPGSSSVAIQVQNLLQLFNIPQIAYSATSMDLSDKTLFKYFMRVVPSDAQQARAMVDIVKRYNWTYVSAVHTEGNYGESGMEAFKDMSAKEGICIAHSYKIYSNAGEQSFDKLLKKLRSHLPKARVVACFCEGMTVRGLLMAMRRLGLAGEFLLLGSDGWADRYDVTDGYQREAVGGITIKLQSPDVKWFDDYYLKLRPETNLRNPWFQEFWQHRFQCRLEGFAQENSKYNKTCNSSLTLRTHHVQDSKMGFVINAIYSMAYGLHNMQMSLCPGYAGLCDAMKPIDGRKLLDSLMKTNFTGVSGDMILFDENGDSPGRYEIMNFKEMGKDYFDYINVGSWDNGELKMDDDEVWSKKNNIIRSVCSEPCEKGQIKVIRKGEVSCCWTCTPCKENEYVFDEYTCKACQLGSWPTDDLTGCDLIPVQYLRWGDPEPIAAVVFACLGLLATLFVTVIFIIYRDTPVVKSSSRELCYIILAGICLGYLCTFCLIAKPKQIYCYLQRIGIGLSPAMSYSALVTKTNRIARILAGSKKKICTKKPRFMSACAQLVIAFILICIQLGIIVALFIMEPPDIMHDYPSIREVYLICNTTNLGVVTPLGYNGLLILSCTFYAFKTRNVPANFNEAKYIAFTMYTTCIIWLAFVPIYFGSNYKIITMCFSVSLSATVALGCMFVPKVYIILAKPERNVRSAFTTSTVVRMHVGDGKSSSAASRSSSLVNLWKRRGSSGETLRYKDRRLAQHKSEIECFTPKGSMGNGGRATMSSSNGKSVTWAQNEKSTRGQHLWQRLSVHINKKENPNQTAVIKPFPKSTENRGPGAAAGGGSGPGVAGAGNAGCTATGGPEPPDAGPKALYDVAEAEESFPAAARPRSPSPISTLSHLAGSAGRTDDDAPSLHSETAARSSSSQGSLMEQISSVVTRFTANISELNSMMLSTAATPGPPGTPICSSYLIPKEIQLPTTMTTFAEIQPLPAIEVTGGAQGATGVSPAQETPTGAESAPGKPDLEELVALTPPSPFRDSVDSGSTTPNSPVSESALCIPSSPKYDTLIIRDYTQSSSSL
Protocol: Radioligand Binding Assay at metabotropic glutamate receptor 5 in rat brain.
a) Membrane preparation: male Sprague Dawley rats (200-300 g, Charles River, Italy) were killed by cervical dislocation and the forebrain (cortex, striatum and hippocampus) was homogenized (2×20 sec) in 50 vols of cold 50 mM Tris buffer pH 7.4, using a Politron homogenizer (Kinematica). Homogenates were centrifuged at 48000×g for 15 min, resuspended in 50 vols of the same buffer, incubated at 37° C. for 15 min and centrifuged and resuspended two more times. The final pellets were frozen and stored at −80° C. until use.
b) Binding assay: pellets from rat forebrain were resuspended in 100 vols of 20 mM HEPES, 2 mM MgCl2, 2 mM CaCl2, pH 7.4. The membranes were incubated in a final volume of 1 ml for 60 min at 25° C. with 4 nM [^3H]MPEP in the absence or presence of competing drugs. Non-specific binding was determined in the presence of 10 μM MPEP (Spooren W. et al. Trends Pharmacol Sci. 22, 331-337, 2001). The incubation was stopped by the addition of cold Tris buffer pH 7.4 and rapid filtration through 0.5% polyethyleneimine pretreated Filtermat 1204-401 (Wallac) filters. The filters were then washed with cold buffer and the radioactivity retained on the filters was counted by liquid scintillation spectrometry. […]

For Cc1ccc([N+](=O)[O-])c(N2CCC(=Cc3noc(-c4cccs4)n3)CC2)n1 [Example 29, 1-(6-methyl-3-nitro-2-pyridyl)-4-{[5-(2-thienyl)-1,2,4-oxadiazol-3-yl]-methylene}-piperidine], the “effect on bladder volume capacity (BVC)” value [1] was “effective in increasing the bladder volume capacity”.

For Cc1ccc([N+](=O)[O-])c(N2CCC(=Cc3cc(-c4ccco4)n(C)n3)CC2)n1 [Example 1, 1-(6-methyl-3-nitro-2-pyridyl)-4-{[5-(2-furyl)-1-methyl-1H-pyrazol-3-yl]-methylene}-piperidine], the pKi [2] was 9.43.
